Measurements published in patent US7879881B2, “Piperidinyl compounds that selectively bind integrins” (Janssen Pharmaceutica NV, priority 2002, dated 2011).
Where two headings read alike, the source gives them in different places.

Legend:
[1] = target: T1, Human αvβ3 (Homo sapiens, UniProt P05106+P06756); test: In Vitro Solid Phase Purified αvβ3 Binding Assay (vitronectin/αvβ3); settings: vitronectin binding to immobilized purified human αvβ3, mean ± spread
T1 construct: purchased Chemicon International Inc., Temecula, Calif
T1 sequence (P06756 31-889 limits assumed): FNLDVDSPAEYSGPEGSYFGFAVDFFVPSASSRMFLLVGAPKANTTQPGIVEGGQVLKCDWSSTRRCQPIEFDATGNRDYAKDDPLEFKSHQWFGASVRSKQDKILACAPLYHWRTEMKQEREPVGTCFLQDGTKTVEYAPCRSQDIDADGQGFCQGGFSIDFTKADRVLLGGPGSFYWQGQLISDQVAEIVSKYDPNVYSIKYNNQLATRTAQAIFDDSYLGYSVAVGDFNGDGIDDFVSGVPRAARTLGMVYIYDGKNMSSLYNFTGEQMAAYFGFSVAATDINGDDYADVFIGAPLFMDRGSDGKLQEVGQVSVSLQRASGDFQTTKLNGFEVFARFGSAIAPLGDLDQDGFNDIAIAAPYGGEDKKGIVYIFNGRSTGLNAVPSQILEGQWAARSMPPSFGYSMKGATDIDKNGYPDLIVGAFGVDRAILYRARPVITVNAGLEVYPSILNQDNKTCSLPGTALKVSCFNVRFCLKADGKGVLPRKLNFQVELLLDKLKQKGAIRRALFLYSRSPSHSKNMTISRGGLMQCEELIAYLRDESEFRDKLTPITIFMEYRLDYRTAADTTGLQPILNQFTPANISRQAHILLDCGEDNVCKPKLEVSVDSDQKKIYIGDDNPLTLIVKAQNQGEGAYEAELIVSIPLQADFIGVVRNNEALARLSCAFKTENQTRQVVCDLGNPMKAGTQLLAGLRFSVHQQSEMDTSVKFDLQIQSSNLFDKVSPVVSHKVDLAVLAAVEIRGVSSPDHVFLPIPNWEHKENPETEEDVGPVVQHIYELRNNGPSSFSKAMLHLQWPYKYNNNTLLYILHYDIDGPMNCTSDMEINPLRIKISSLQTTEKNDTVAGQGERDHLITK
T1 sequence (P06756 891-1048 partner limits assumed): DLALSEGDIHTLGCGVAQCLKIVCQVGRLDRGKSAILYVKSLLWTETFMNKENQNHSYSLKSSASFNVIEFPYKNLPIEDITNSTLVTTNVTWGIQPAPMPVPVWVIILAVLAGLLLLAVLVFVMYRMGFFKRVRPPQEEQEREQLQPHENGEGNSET
T1 sequence (P05106 27-788): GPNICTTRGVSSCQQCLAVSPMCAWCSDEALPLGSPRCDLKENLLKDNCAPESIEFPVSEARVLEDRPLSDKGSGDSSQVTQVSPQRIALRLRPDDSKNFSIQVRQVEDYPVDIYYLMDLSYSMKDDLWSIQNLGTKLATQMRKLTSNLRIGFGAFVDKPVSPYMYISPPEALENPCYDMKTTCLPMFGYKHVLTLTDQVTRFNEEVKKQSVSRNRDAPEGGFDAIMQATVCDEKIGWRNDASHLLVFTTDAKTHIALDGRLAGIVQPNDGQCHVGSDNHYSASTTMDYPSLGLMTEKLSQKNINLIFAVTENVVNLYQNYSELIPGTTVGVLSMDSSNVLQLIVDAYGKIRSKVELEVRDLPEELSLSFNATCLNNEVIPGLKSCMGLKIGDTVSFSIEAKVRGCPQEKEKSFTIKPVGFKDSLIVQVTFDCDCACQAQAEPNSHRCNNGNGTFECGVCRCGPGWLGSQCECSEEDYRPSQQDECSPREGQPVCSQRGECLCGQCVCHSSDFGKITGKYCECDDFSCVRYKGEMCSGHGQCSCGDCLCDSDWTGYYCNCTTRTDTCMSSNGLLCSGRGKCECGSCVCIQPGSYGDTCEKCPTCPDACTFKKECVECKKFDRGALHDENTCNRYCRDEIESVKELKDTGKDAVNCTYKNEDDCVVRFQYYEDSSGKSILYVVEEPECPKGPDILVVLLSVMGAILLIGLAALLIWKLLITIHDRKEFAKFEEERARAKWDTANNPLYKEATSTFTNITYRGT
Summary of the method: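 Purified human αvβ3 immobilized at 1 μg/ml in Tris buffer with Ca, Mg and Mn; compounds competed with 2 nM vitronectin for 3 h at 37 °C. Bound vitronectin detected by anti-vitronectin antibody and peroxidase ABC, absorbance at 490 nm.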

[2] = target: GP IIb/IIIa (Homo sapiens, UniProt P05106+P08514); test: In Vitro Solid Phase Purified GP IIb/IIIa Binding Assay (biotinylated fibrinogen); settings: biotinylated fibrinogen binding to immobilized purified GP IIb/IIIa, mean ± spread
GP IIb/IIIa, sequence (P08514 32-887 limits assumed): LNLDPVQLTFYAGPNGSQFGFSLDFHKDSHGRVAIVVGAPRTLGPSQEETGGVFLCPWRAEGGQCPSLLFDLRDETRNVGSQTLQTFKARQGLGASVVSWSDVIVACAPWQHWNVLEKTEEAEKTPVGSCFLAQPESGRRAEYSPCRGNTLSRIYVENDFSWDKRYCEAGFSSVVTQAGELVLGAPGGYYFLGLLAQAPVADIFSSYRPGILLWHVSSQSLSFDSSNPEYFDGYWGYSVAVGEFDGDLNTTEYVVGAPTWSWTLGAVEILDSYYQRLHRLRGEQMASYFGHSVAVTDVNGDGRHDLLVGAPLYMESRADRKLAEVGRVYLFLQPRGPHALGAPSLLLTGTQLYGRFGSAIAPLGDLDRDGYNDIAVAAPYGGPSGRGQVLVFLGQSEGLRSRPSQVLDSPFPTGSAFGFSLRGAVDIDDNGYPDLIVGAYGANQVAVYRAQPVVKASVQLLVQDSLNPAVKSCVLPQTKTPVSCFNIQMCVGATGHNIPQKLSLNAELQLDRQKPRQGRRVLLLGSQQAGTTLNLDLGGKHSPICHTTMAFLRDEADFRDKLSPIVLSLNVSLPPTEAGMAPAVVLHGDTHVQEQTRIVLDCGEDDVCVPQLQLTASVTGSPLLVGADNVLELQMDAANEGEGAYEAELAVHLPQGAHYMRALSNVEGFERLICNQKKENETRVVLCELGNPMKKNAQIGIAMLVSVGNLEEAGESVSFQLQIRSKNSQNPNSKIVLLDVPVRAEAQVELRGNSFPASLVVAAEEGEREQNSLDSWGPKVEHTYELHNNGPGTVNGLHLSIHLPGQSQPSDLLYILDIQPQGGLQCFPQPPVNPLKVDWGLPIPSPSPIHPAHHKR
GP IIb/IIIa, sequence (P08514 891-1039 partner limits assumed): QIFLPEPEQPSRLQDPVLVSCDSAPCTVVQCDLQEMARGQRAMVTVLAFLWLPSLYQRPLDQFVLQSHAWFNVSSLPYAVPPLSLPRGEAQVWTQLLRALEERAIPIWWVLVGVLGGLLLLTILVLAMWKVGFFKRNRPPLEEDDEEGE
GP IIb/IIIa, sequence (P05106 27-788): as the sequence (P05106 27-788) above
Summary of the method: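 Purified GP IIb/IIIa coated overnight at 4° C, blocked with 5% BSA, then incubated with test compound and biotinylated fibrinogen for 2-4 h at RT in modified Tyrodes buffer. Bound fibrinogen detected with avidin-biotin HRP complex and o-phenylenediamine/H2O2 (citrate/phosphate pH 5.3), stopped with 2 N H2SO4.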

[3] = target: T2, human purified αVβ5 (Homo sapiens, UniProt P06756+P18084); test: In Vitro Solid Phase Purified αcβ5 Binding Assay (vitronectin/αVβ5); settings: vitronectin binding to immobilized purified human αVβ5, mean ± spread
T2 construct: purchased Chemicon International, Inc
T2 sequence (P06756 31-889 limits assumed): as the sequence (P06756 31-889 limits assumed) above
T2 sequence (P06756 891-1048 partner limits assumed): as the sequence (P06756 891-1048 partner limits assumed) above
T2 sequence (P18084 24-799): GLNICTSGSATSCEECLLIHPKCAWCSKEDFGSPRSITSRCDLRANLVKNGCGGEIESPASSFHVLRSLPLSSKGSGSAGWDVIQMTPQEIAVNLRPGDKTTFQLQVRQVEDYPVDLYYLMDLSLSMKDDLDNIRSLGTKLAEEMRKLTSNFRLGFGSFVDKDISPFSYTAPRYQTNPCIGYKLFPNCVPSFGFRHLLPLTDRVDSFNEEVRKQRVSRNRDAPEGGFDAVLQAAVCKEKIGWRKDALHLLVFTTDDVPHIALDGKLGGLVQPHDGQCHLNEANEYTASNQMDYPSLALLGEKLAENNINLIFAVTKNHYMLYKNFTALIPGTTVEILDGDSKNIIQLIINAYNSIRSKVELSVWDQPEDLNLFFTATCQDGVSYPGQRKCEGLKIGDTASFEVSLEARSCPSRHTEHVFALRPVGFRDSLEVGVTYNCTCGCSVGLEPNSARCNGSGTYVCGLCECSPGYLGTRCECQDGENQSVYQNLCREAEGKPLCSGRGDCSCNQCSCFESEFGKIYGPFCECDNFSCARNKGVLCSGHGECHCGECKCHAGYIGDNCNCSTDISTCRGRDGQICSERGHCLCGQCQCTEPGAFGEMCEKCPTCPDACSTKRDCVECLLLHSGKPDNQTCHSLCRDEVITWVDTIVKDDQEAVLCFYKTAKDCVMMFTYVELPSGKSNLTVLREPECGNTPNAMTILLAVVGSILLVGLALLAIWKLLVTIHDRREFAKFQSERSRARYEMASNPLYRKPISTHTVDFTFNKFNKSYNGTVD
Summary of the method: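 Purified human integrin immobilized at 1 μg/ml in Tris buffer with Ca2+, Mg2+, Mn2+ and NaCl, then BSA-blocked. Compounds added just before 2 nM vitronectin, 3 h at 37 °C. Bound vitronectin detected by anti-vitronectin antibody with biotin/peroxidase (ABC) detection at 490 nm.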

Row | SMILES | IC50 ([1]; read-out: αvβ3IC50) | IC50 ([2]; read-out: αIIbβ3 IC50) | IC50 ([3]; read-out: αvβ5 IC50) | IC50 ([1]; αvβ3IC50 (uM)) | IC50 ([2]; αIIbβ3 IC50 (uM)) | IC50 ([3]; αvβ5 IC50 (uM))
1 | O=C(O)CC(c1ccc2c(c1)OCO2)C1CCN(C(=O)Cc2ccc3c(n2)NCCC3)CC1 (stereo not drawn) [Cpd 16, β-(1,3-benzodioxol-5-yl)-1-[(5,6,7,8-tetrahydro-1,8-naphthyridin-2-yl)acetyl]-4-piperidinepropanoic acid] | 0.281 µM | 25.4 µM | 0.775 µM |  |  | 
2 | O=C(O)CC(c1cnc2c(c1)CCCC2)C1CCN(C(=O)CCCc2ccc3c(n2)NCCC3)CC1 (single isomer, unassigned) [Cpd 58b, 5,6,7,8-Tetrahydro-β-[1-[1-oxo-4-(5,6,7,8-tetrahydro-1,8-naphthyridin-2-yl)butyl]-4-piperidinyl]-3-quinolinepropanoic acid] | 0.083 ± 0.02 µM | 35.5 µM | 0.576 ± 0.149 µM |  |  | 
3 | CC(C)(C)OC(=O)CCCC1CCN(C(=O)CCc2ccc3c(n2)NCCC3)CC1 [Cpd 70, 4-[1-(3-5,6,7,8-Tetrahydro-[1,8]naphthyridin-2-yl-propionyl)-piperidin-4-yl]-butyric acid tert-butyl ester] | > 0.5 µM | > 50 µM | > 1 µM |  |  | 
4 | O=C(O)CC(CC1CCN(C(=O)CCc2ccc3c(n2)NCCC3)CC1)c1ccc(OC(F)(F)F)cc1 (stereo not drawn) [Cpd 40, 1-[1-oxo-3-(5,6,7,8-tetrahydro-1,8-naphthyridin-2-yl)propyl]-β-[4-(trifluoromethoxy)phenyl]-4-piperidinebutanoic acid] | 0.0052 ± 0.0002 µM | 24 ± 9.89 µM | 0.308 ± 0.063 µM |  |  | 
5 | O=C(O)CC(CC1CCN(C(=O)CCc2ccc3c(n2)NCCC3)CC1)c1ccc(Oc2ccccc2)cc1 (stereo not drawn) [Cpd 43, 1-[1-oxo-3-(5,6,7,8-tetrahydro-1,8-naphthyridin-2-yl)propyl]-β-(4-phenoxyphenyl)-4-piperidinebutanoic acid] | 0.0079 ± 0.0007 µM | 28.8 ± 15.8 µM | 0.222 ± 0.0885 µM |  |  | 
6 | O=C(O)CC(CCC1CCN(C(=O)c2cccc(NC3=NCCCN3)c2)CC1)c1cnc2ccccc2c1 (stereo not drawn) [Cpd 12, β-[2-[1-[3-[(1,4,5,6-Tetrahydro-2-pyrimidinyl)amino]benzoyl]-4-piperidinyl]ethyl]-3-quinolinepropanoic acid] | 0.0042 ± 0.0014 µM | 0.136 ± 0.003 µM | 0.078 ± 0.017 µM |  |  | 
7 | CCCCCCCCOC(=O)CCCC1CCN(C(=O)CCc2ccc3c(n2)NCCC3)CC1 [Cpd 71, 4-[1-(3-5,6,7,8-Tetrahydro-[1,8]naphthyridin-2-yl-propionyl)-piperidin-4-yl]-butyric acid octyl ester] | > 0.5 µM | > 50 µM | > 1 µM |  |  | 
8 | O=C(O)CC(CC1CCN(C(=O)CCc2ccc3c(n2)NCCC3)CC1)C1CNc2ccccc2C1 (single isomer, unassigned) [Cpd 19-4, 1,2,3,4-tetrahydro-β-[[1-[1-oxo-3-(5,6,7,8-tetrahydro-1,8-naphthyridin-2-yl)propyl]-4-piperidinyl]methyl]-3-quinolinepropanoic acid] | 0.0013 ± 0.0007 µM | 4.86 µM | 0.0075 ± 0.0018 µM |  |  | 
9 | CCNc1cccc(C(CC(=O)O)CC2CCN(C(=O)CCc3ccc4c(n3)NCCC4)CC2)c1 (racemic) [Cpd 78, 3-(3-Ethylamino-phenyl)-4-[1-(3-5,6,7,8-tetrahydro-[1,8]naphthyridin-2-yl-propionyl)-piperidin-4-yl]-butyric acid] | 0.0057 ± 0.0001 µM | 24.7 µM | 0.026 ± 0.003 µM |  |  | 
10 | COc1ccc(C(CCC2CCN(C(=O)CCc3ccc4c(n3)NCCC4)CC2)CC(=O)O)cn1 (single isomer, unassigned) [Cpd 21b, 6-methoxy-β-[2-[1-[1-oxo-3-(5,6,7,8-tetrahydro-1,8-naphthyridin-2-yl)propyl]-4-piperidinyl]ethyl]-3-pyridinepropanoic acid] | 0.405 µM | 1.97 µM | 0.28 µM |  |  | 
11 | COc1ccc(C(CCC2CCN(C(=O)c3cccc(NC4=NCC(O)CN4)c3)CC2)CC(=O)O)cn1 (stereo not drawn) [Cpd 10, 6-Methoxy-β-[2-[1-[3-[(1,4,5,6-tetrahydro-5-hydroxy-2-pyrimidinyl)amino]benzoyl]-4-piperidinyl]ethyl]-3-pyridinepropanoic acid] | 0.0024 ± 0.0013 µM | 1.67 µM | 0.0335 ± 0.0075 µM |  |  | 
12 | CC1=NCC(C(CC(=O)O)CC2CCN(C(=O)CCc3ccc4c(n3)NCCC4)CC2)CN1 (stereo not drawn) [Cpd 18, 1,4,5,6-tetrahydro-2-methyl-β-[[1-[1-oxo-3-(5,6,7,8-tetrahydro-1,8-naphthyridin-2-yl)propyl]-4-piperidinyl]methyl]-5-pyrimidinepropanoic acid] | > 5 µM | > 50 µM | > 5 µM |  |  | 
13 | O=C(O)CC(CCC1CCN(C(=O)CCc2ccc3c(n2)NCCC3)CC1)c1cnc2ccccc2c1 (stereo not drawn) [Cpd 51, β-[2-[1-[1-oxo-3-(5,6,7,8-tetrahydro-1,8-naphthyridin-2-yl)propyl]-4-piperidinyl]ethyl]-3-quinolinepropanoic acid] | 0.003 ± 0.0006 µM | 0.48 ± 0.01 µM | 0.169 ± 0.019 µM |  |  | 
14 | Cc1ncc(C(CC(=O)O)CC2CCN(C(=O)CCc3ccc4c(n3)NCCC4)CC2)cn1 (stereo not drawn) [Cpd 35, 2-methyl-β-[[1-[1-oxo-3-(5,6,7,8-tetrahydro-1,8-naphthyridin-2-yl)propyl]-4-piperidinyl]methyl]-5-pyrimidinepropanoic acid] | 0.0007 ± 0.0004 µM | 0.965 ± 0.07 µM | 0.0007 ± 0.0002 µM |  |  | 
15 | O=C(O)CC(CC1CCN(C(=O)CCc2ccc3c(n2)NCCC3)CC1)c1ccc2c(c1)OCC2 (single isomer, unassigned) [Cpd 36a, 3-(2,3-Dihydro-benzofuran-6-yl)-4-[1-(3-5,6,7,8-tetrahydro-[1,8]naphthyridin-2-yl-propionyl)-piperidin-4-yl]-butyric acid] | 0.0004 µM | 0.79 ± 0.05 µM | 0.0009 ± 0.0006 µM |  |  | 
16 | O=C(O)CC(CC1CCN(C(=O)CCCc2ccc3c(n2)NCCC3)CC1)c1cccc(F)c1 (stereo not drawn) [Cpd 31, β-(3-fluorophenyl)-1-[1-oxo-4-(5,6,7,8-tetrahydro-1,8-naphthyridin-2-yl)butyl]-4-piperidinebutanoic acid] | 0.033 µM | 21.6 ± 4.87 µM | 0.3 µM |  |  | 
17 | O=C(O)CC(CC1CCN(C(=O)CCc2ccc3c(n2)NCCC3)CC1)c1cc(F)cc(F)c1 (stereo not drawn) [Cpd 37, β-(3,5-difluorophenyl)-1-[1-oxo-3-(5,6,7,8-tetrahydro-1,8-naphthyridin-2-yl)propyl]-4-piperidinebutanoic acid] | 0.0158 ± 0.0043 µM | > 50 µM | 0.0897 ± 0.0116 µM |  |  | 
18 | O=C(O)CC(CC1CCN(C(=O)CCc2ccc3c(n2)NCCC3)CC1)c1cnc2c(c1)CCCC2 (racemic) [Cpd 57, 5,6,7,8-tetrahydro-β-[[1-[1-oxo-3-(5,6,7,8-tetrahydro-1,8-naphthyridin-2-yl)propyl]-4-piperidinyl]methyl]-3-quinolinepropanoic acid] |  |  |  | 0.0016 ± 0.0007 µM | 3.04 ± 0.55 µM | 0.0109 ± 0.0042 µM
19 | O=C(O)CC(CCC1CCN(C(=O)c2cccc(NC3=NCCCN3)c2)CC1)c1cccnc1 (stereo not drawn) [Cpd 6, β-[2-[1-[3-[(1,4,5,6-Tetrahydro-2-pyrimidinyl)amino]benzoyl]-4-piperidinyl]ethyl]-3-pyridinepropanoic acid] | 0.0076 ± 0.0021 µM | 1.62 ± 0.05 µM | 0.54 µM |  |  | 
20 | O=C(O)CC(CC1CCN(C(=O)CCc2ccc3c(n2)NCCC3)CC1)C1CNc2ccccc2C1 (single isomer, unassigned) [Cpd 19-1, 1,2,3,4-tetrahydro-β-[[1-[1-oxo-3-(5,6,7,8-tetrahydro-1,8-naphthyridin-2-yl)propyl]-4-piperidinyl]methyl]-3-quinolinepropanoic acid] | 0.0367 µM | > 50 µM | 1.12 µM |  |  | 
21 | O=C(O)CCC1CCN(C(=O)Cc2cccc(NC3=NCCCN3)c2)CC1 [Cpd 1, 1-[[3-[(1,4,5,6-Tetrahydro-2-pyrimidinyl)amino]phenyl]acetyl]-4-piperidinepropanoic acid] | 0.056 ± 0.007 µM | 4.33 ± 0.15 µM | > 5 µM |  |  | 
22 | CN(C)c1cccc(C(CC(=O)O)CC2CCN(C(=O)CCc3ccc4c(n3)NCCC4)CC2)c1 (racemic) [Cpd 75] | 0.0053 ± 0.001 µM | > 50 µM | 0.0419 ± 0.0052 µM |  |  | 
23 | O=C(O)CC(CC1CCN(C(=O)CCc2ccc3c(n2)NCCC3)CC1)C1CNc2ccccc2C1 (stereo not drawn) [Cpd 19, 1,2,3,4-tetrahydro-β-[[1-[1-oxo-3-(5,6,7,8-tetrahydro-1,8-naphthyridin-2-yl)propyl]-4-piperidinyl]methyl]-3-quinolinepropanoic acid] | 0.0025 ± 0.0004 µM |  | 0.0171 ± 0.0025 µM |  | 13.8 ± 9.69 µM | 
24 | COc1ccc(C(CCC2CCN(C(=O)CCCNc3ccccn3)CC2)CC(=O)O)cn1 (stereo not drawn) [Cpd 25, 6-methoxy-β-[2-[1-[1-oxo-4-(2-pyridinylamino)butyl]-4-piperidinyl]ethyl]-3-pyridinepropanoic acid] | 0.0456 ± 0.0066 µM | 8.67 ± 1.72 µM | 0.773 ± 0.118 µM |  |  | 
25 | COc1ccc(C(CC(=O)O)CC2CCN(C(=O)CCc3ccc4c(n3)NCCC4)CC2)cn1 (single isomer, unassigned) [Cpd 28b, 6-methoxy-β-[[1-[1-oxo-3-(5,6,7,8-tetrahydro-1,8-naphthyridin-2-yl)propyl]-4-piperidinyl]methyl]-3-pyridinepropanoic acid] | 0.0208 ± 0.0053 µM | 24.3 µM | 0.126 ± 0.0448 µM |  |  | 
